US11970452B2, “Modulators of mas-related G-protein receptor X2 and related products and methods” (Escient Pharmaceuticals, Inc., priority 2020, dated 2024)

Legend:
[1] = molecular target: T1, human MRGPRX2 (Homo sapiens, UniProt Q96LB1); assay: MRGPRX2 activity: IP-One HTRF antagonist assay versus 0.3 uM Cortistatin 14; format: cell-based; details: CHO cells expressing human MRGPRX2; IP-1 HTRF; versus 0.3 uM Cortistatin 14 agonist; read-out: MRGPR2 Antagonist Activity
T1 construct: expressed in transfected cells
T1 sequence (Q96LB1 1-330): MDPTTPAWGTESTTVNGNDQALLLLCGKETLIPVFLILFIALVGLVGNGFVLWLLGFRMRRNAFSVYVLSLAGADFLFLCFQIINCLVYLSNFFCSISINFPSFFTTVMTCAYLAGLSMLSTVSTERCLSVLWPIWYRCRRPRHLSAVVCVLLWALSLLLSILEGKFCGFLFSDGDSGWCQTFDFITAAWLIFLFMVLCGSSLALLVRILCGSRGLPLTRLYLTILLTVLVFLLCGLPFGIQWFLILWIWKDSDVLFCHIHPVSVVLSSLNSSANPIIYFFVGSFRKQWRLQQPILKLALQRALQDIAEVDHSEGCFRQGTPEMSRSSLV
Description: CHO cells stably transfected to express human MRGPRX2 were maintained in an incubator at 37° C. with 5% CO2 and grown in F12 (HAM) media with 10% fetal bovine serum (FBS), 1% Glutamax, 1% penicillin/streptomycin, 800 μg/mL Geneticin (G418), and 300 μg/mL Hygromycin B.
Cells were plated in a […] assay plate at 20,000 cells per well in 12 μL of Opti-MEM and kept in an incubator overnight. On the day of the assay, compounds solubilized at 10 mM in DMSO were added as a 10-point curve (30 uM final top concentration with 1:3 serial dilutions) using a Tecan D300E digital dispenser. Agonists were diluted in assay buffer (final concentrations of 5.7 mM Tris-HCl, 43 mM NaCl, 50 mM LiCl, pH=8) and 2 μL of the agonist Cortistatin 14 (CPC Scientific, catalog CORT-002) are added to each well. Final concentrations of agonists were 0.3 μM Cortistatin. Final concentrations of DMSO were kept consistent across the plate. Plates were incubated in the dark for 1 h at 37° C. and then for 1 h at room temperature. IP-1 standards and HTRF detection reagents were added according to the IP-One-Gq Kit purchased from Cisbio (part number 62IPAPEJ) and incubated in the dark for 1 h at room temperature. The plate was read on a Molecular Devices SpectraMax iD5 plate reader. The HTRF ratio was calculated from the raw data and graphed using GraphPad Prism to calculate an IC50 value for each compound.
(§1) The activity ranges are denoted as follows: “+++++” denotes antagonist activity <100 nM; “++++” denotes antagonist activity between 100 and 500 nM; “+++” denotes activity between 501 and 1000 nM; “++” denotes activity between 1001 and 2500 nM; and “+” denotes activity >2500 nM

[2] = test system: Human LAD2 cells; assay: Mast Cell Beta-Hexosaminidase Release Assay (versus 500 nM Cortistatin-14); format: cell-based; details: 500 nM Cortistatin-14 agonist, read-out: MRGPR2 Antagonist Activity
Description: Human LAD2 cells (NIH) were maintained in an incubator at 37° C. with 5% CO2 and cultured in StemPro-34 serum-free media (Gibco 10639011) supplemented with 2 mM L-glutamine, 100 U/ml penicillin, […] streptomycin and 100 ng/ml SCF (Invitrogen PEP0860), at a concentration of 2-5×10^5 cells/mL, with hemidepletion every 1-2 weeks.
Cells were transferred to SCF-Free medium at 2.5×10^5 cells/mL and kept in an incubator overnight. On the day of the assay, cells were washed twice in Assay Buffer (final concentrations 10 mM HEPES, 137 mM NaCl, 5.6 mM D-glucose, 2.7 mM KCl, 1 mM MgCl, 1.8 mM CaCl2, 0.4 mM Na2HPO4.7H2O, 0.04% BSA, pH=7.4) and plated in a 96-well v-bottom plate at 20,000 cells per well in 80 μL Assay Buffer. Antagonist compounds solubilized at 10 mM in DMSO were diluted in Assay Buffer to 10× final desired concentrations as a 10-point curve (10 μM final top concentration with 1:3 serial dilutions) and 10 μL added per well. Plates were then incubated for 1 hour at 37° C. Agonists were diluted in Assay Buffer to 10× desired concentrations and 10 μL of the appropriate agonist added to each well. The final concentration of Cortistatin-14 (Tocris 3374) used in antagonist assays was 500 nM. Final concentrations of DMSO were kept consistent across the plate. Plates were then incubated in a warm air oven for 30 minutes at 37° C., followed by centrifugation at 4° C. for 5 minutes at 450×g. 50 μL supernatant from each well was then transferred to a 96-well flat bottom plate containing 100 μL substrate solution per well (3.5 mg/mL p-Nitrophenyl-N-acetyl-β-D-glucosaminide (Sigma 487052) in Citrate Buffer containing a final concentration of 40 mM Citric Acid, 20 mM Na2HPO4.7H2O, pH=4.5). To the cell pellets left in the remaining assay buffer, 150 μL 0.1% Triton-X-100 was then added to each well, resuspended by pipetting up and down, and 50 μL cell lysates transferred to a second 96-well flat bottom plate containing 100 μL substrate solution per well. Plates containing transferred supernatant and cell lysates were then incubated in a warm air oven for 90 minutes at 37° C. After incubation, 50 μL of 400 mM Glycine buffer (pH 10.7) was added into each well and the plate was read on a Molecular Devices SpectraMax iD5 plate reader (absorbance at 405 nm with reference filter at 620 nm). After background subtraction, the percentage degranulation (percent beta-hexosaminidase release) was calculated as 100×(supernatant values)/(supernatant+lysate values), followed by analysis using GraphPad Prism software to calculate an IC50 value for each compound.
as §1

SMILES	IC50 [1] [µM]	IC50 [2] [µM]
O=C(N[C@H]1CC[C@@H](Nc2cc(C(F)(F)F)nc3ccc(Cl)cc23)CC1)c1ccc2[nH]c(-c3ccncc3)nc2c1 [4-23]	< 0.1	–
Cn1cc(I)c(C(=O)N[C@H]2CC[C@@H](Nc3cc(C(F)(F)F)nc4ccc(Cl)cc34)CC2)n1 [4-90]	0.501 to 1	–
O=C(N[C@H]1CC[C@@H](Nc2cc(C(F)(F)F)nc3ccccc23)CC1)c1ccccc1Cl [3-12]	0.1 to 0.5	–
O=C(N[C@H]1CC[C@@H](Nc2cc(C(F)(F)F)nc3ccc(Cl)cc23)CC1)c1ccc2nc(Cl)sc2c1 [4-57]	0.501 to 1	–
CN(C)C(=O)Nc1cccc(C(=O)N[C@H]2CC[C@@H](Nc3cc(C(F)(F)F)nc4ccc(Cl)cc34)CC2)c1 [4-281]	0.1 to 0.5	–
CCCS(=O)(=O)Nc1ccc(F)c(C(=O)N[C@H]2CC[C@@H](Nc3cc(C(F)(F)F)nc4ccc(Cl)cc34)CC2)c1F [4-173]	0.1 to 0.5	–
O=C(N[C@H]1CC[C@@H](Nc2cc(C(F)(F)F)nc3ccc(Cl)cc23)CC1)c1ccc2oc(=O)ccc2c1 [4-145]	0.1 to 0.5	–
O=C(N[C@H]1CC[C@@H](Nc2cc(C(F)(F)F)nc3ccccc23)CC1)c1cccs1 [3-36]	0.501 to 1	–
CC(=O)Nc1ccc(C(=O)N[C@H]2CC[C@@H](Nc3cc(C(F)(F)F)nc4ccc(Cl)cc34)CC2)cc1 [4-103]	< 0.1	–
N#Cc1cccc(C(=O)N[C@H]2CC[C@@H](Nc3nc(C(F)(F)F)nc4ccccc34)CC2)c1 [4-288]	–	0.501 to 1
O=C(N[C@H]1CC[C@@H](Nc2cc(C(F)F)nc3ccc(Cl)cc23)CC1)c1ccc(F)cc1 [1-3, 4-fluoro-N-[(1s,4s)-4-{[6-chloro-2-(difluoromethyl)quinolin-4-yl]amino}cyclohexyl]benzamide]	0.1 to 0.5	–
CC(C)C(=O)Nc1cccc(C(=O)N[C@H]2CC[C@@H](Nc3cc(C(F)(F)F)nc4ccc(Cl)cc34)CC2)c1 [4-279]	0.1 to 0.5	–
CCC(C(=O)N[C@H]1CC[C@@H](Nc2cc(C(F)(F)F)nc3ccccc23)CC1)c1ccccc1 (some centres unmarked) [3-24]	1 to 2.5	–
O=C(N[C@H]1CC[C@@H](Nc2cc(C(F)(F)F)nc3ccccc23)CC1)c1ccc2ncccc2n1 [4-265]	1 to 2.5	–
CCNc1cccc(C(=O)N[C@H]2CC[C@@H](Nc3cc(C(F)(F)F)nc4ccc(Cl)cc34)CC2)c1 [4-282]	0.1 to 0.5	–
O=C(N[C@H]1CC[C@@H](Nc2cc(C(F)(F)F)nc3ccc(Cl)cc23)CC1)c1ccc(F)cc1 [1-5, 4-fluoro-N-[(1s,4s)-4-{[6-chloro-2-(trifluoromethyl)quinolin-4-yl]amino}cyclohexyl]benzamide]	–	0.1 to 0.5
CCCc1nnsc1C(=O)N[C@H]1CC[C@@H](Nc2cc(C(F)(F)F)nc3ccc(Cl)cc23)CC1 [4-209]	1 to 2.5	–
O=C(N[C@H]1CC[C@@H](Nc2cc(C(F)(F)F)nc3ccccc23)CC1)c1coc2ccccc12 [4-272]	0.1 to 0.5	–
O=C(N[C@H]1CC[C@@H](Nc2cc(C(F)(F)F)nc3ccccc23)CC1)c1ccnc2ccccc12 [4-230]	1 to 2.5	–
CNC(=O)Nc1cccc(C(=O)N[C@H]2CC[C@@H](Nc3cc(C(F)(F)F)nc4ccc(Cl)cc34)CC2)c1 [Example 5A]	< 0.1	–
O=C(N[C@H]1CC[C@@H](Nc2cc(C(F)(F)F)nc3ccc(Cl)cc23)CC1)c1csnn1 [4-107]	0.501 to 1	–
O=C(N[C@H]1CC[C@@H](Nc2cc(C(F)(F)F)nc3ccccc23)CC1)c1cccc(F)c1 [3-42]	0.1 to 0.5	–

SMILES	IC50 [1] [µM]	IC50 [2] [µM]
O=C1CCc2ccc(C(=O)N[C@H]3CC[C@@H](Nc4cc(C(F)(F)F)nc5ccc(Cl)cc45)CC3)cc2N1 [4-283]	0.1 to 0.5	–
O=C(N[C@H]1CC[C@@H](Nc2cc(C(F)(F)F)nc3ccc(Cl)cc23)CC1)c1cccn1-c1ccccc1 [4-162]	1 to 2.5	–
O=C1Nc2c(C(=O)N[C@H]3CC[C@@H](Nc4cc(C(F)(F)F)nc5ccc(Cl)cc45)CC3)cccc2C1=O [4-164]	0.1 to 0.5	–
O=C(CCOc1cccc(F)c1)N[C@H]1CC[C@@H](Nc2cc(C(F)(F)F)nc3ccc(Cl)cc23)CC1 [4-134]	> 2.5	–
O=C(N[C@H]1CC[C@@H](Nc2nc(C(F)(F)F)nc3ccccc23)CC1)c1ccc(F)cc1 [1-7, 4-fluoro-N-[(1s,4s)-4-{[2-(trifluoromethyl)quinazolin-4-yl]amino}cyclohexyl]benzamide]	–	0.501 to 1
CS(=O)(=O)c1ccc(C(=O)N[C@H]2CC[C@@H](Nc3cc(C(F)(F)F)nc4ccc(Cl)cc34)CC2)c(Cl)c1 [4-123]	0.1 to 0.5	–
O=C(N[C@H]1CC[C@@H](Nc2cc(C(F)(F)F)nc3ccccc23)CC1)c1cc(Cl)cs1 [4-251]	0.501 to 1	–
O=C(N[C@H]1CC[C@@H](Nc2cc(C(F)(F)F)nc3ccccc23)CC1)[C@H]1C[C@@H]1c1ccccc1 [4-291]	1 to 2.5	–
O=C(N[C@H]1CC[C@@H](Nc2cc(C(F)(F)F)nc3ccccc23)CC1)c1ccccn1 [3-21]	0.501 to 1	–
CC1C(C(=O)N[C@H]2CC[C@@H](Nc3cc(C(F)(F)F)nc4ccc(Cl)cc34)CC2)CC2CC1C2(C)C (some centres unmarked) [4-200]	1 to 2.5	–
Cc1cc(C(F)(F)F)nn1CC(=O)N[C@H]1CC[C@@H](Nc2cc(C(F)(F)F)nc3ccc(Cl)cc23)CC1 [4-141]	1 to 2.5	–
N#Cc1ccc(C(=O)N[C@H]2CC[C@@H](Nc3cc(C(F)(F)F)nc4ccccc34)CC2)s1 [4-242]	1 to 2.5	–
O=C(N[C@H]1CC[C@@H](Nc2cc(C(F)(F)F)nc3ccccc23)CC1)c1ccc(Cl)s1 [4-241]	0.501 to 1	–
CNc1cccc(C(=O)N[C@H]2CC[C@@H](Nc3cc(C(F)(F)F)nc4ccc(Cl)cc34)CC2)c1 [4-8]	0.1 to 0.5	–
CC(C)Cc1cc(C(=O)N[C@H]2CC[C@@H](Nc3cc(C(F)(F)F)nc4ccc(Cl)cc34)CC2)n(C)n1 [4-129]	1 to 2.5	–
COc1ccc(C(=O)N[C@H]2CC[C@@H](Nc3cc(C(F)(F)F)nc4ccc(Cl)cc34)CC2)c(C)n1 [4-6]	0.501 to 1	–
COc1ccc(C(=O)N[C@H]2CC[C@@H](Nc3cc(C(F)(F)F)nc4ccccc34)CC2)cc1N(C)C [4-258]	0.501 to 1	–
O=C(N[C@H]1CC[C@@H](Nc2cc(C(F)(F)F)nc3ccc(Cl)cc23)CC1)C1CCN(C(=O)c2ccccc2Cl)CC1 [4-122]	> 2.5	–
O=C(N[C@H]1CC[C@@H](Nc2cc(C(F)(F)F)nc3ccc(Cl)cc23)CC1)c1n[nH]c2c1COCC2 [4-60]	0.501 to 1	–
N#Cc1csc(C(=O)N[C@H]2CC[C@@H](Nc3cc(C(F)(F)F)nc4ccccc34)CC2)c1 [4-243]	0.501 to 1	–
COc1ccc(C(=O)N[C@H]2CC[C@@H](Nc3cc(C(F)(F)F)nc4ccccc34)CC2)cc1F [3-27]	0.501 to 1	–
CN(C)c1ccc(C(=O)N[C@H]2CC[C@@H](Nc3cc(C(F)(F)F)nc4ccc(Cl)cc34)CC2)cc1 [4-102]	0.1 to 0.5	–
